Bounds are passed on as bounds.

Chain of human A2A receptor (A2AR) (P29274 whole entry): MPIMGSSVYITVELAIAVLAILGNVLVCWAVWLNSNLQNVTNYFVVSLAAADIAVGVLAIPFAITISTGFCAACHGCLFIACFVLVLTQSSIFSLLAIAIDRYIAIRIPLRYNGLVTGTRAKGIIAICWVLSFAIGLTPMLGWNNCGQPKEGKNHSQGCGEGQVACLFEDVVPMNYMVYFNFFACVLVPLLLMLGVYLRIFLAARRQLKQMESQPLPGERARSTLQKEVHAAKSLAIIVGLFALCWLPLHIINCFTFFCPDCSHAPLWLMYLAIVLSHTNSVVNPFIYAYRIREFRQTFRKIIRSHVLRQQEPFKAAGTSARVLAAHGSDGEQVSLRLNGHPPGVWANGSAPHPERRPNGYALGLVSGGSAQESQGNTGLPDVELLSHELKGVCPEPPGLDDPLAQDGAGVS

For this experiment, the target named is human A2A receptor (A2AR) (Homo sapiens, UniProt P29274). Put plainly: Luciferase reporter assay (HEK293-A2AR-luc2p/CRE/Hygro cells, 3 nM CGS21680). The class given is cell-based. The following applies: 3 nM CGS21680, 5 h incubation. The method in brief:
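HEK293 cells stably expressing A2AR with a CRE-luc2P reporter were seeded in 1% FBS with 1 U/mL adenosine deaminase. After 18 h, cells got 3 nM CGS21680 plus antagonist at 0.1–10000 nM for 5 h, followed by a luciferase readout. IC50 is relative to the 3 nM CGS21680 signal, set as 100%.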
(In general: In a reporter assay the amount or activity of a reporter protein is the signal.)
The term IC50 denotes the point on the concentration scale where inhibition reaches its midpoint. The compound `COCCOc1ccc(N2CCN(C(=O)C(C3CCNCC3)n3ncc4c3nc(N)n3nc(-c5ccco5)nc43)CC2)cc1` (stereo not drawn) [Compound A58, 2-(5-amino-2-(furan-2-yl)-7H-pyrazolo[4,3-e][1,2,4]triazolo[1,5-c]pyrimidin-7-yl)-1-(4-(4-(2-methoxyethoxy)phenyl)piperazin-1-yl)-2-(piperidin-4-yl)ethan-1-one] displayed a concentration for half-maximal inhibition (IC50) greater than 10000 nM.

In turn, `COCCOc1ccc(N2CC(C)N(C(=O)C(c3ccccc3)n3ncc4c3nc(N)n3nc(-c5ccco5)nc43)C(C)C2)cc1` (stereo not drawn) [Compound A59, 2-(5-amino-2-(furan-2-yl)-7H-pyrazolo[4,3-e][1,2,4]triazolo[1,5-c]pyrimidin-7-yl)-1-(4-(4-(2-methoxyethoxy)phenyl)-2,6-dimethylpiperazin-1-yl)-2-phenylethan-1-one] yielded an IC50 of 18.4 nM. That is a double-digit nanomolar value.

`COCCOc1ccc(N2CCN(C(=O)C(C3CCN(C)CC3)n3ncc4c3nc(N)n3nc(-c5ccco5)nc43)CC2)cc1` (stereo not drawn) [Compound A60, 2-(5-amino-2-(furan-2-yl)-7H-pyrazolo[4,3-e][1,2,4]triazolo[1,5-c]pyrimidin-7-yl)-1-(4-(4-(2-methoxyethoxy)phenyl)piperazin-1-yl)-2-(1-methylpiperidin-4-yl)ethan-1-one] came in with an IC50 greater than 10000 nM.

Regarding `Nc1nc2c(cnn2C(C(=O)N2CCN(c3ccc(OCCO)cc3)CC2)c2ccccc2)c2nc(-c3ccco3)nn12` (stereo not drawn) [Compound A61, 2-(5-amino-2-(furan-2-yl)-7H-pyrazolo[4,3-e][1,2,4]triazolo[1,5-c]pyrimidin-7-yl)-1-(4-(4-(2-hydroxyethoxy)phenyl)piperazin-1-yl)-2-phenylethan-1-one], the midpoint of inhibition, the IC50, lay at 0.5 nM.

On to `CC(O)COc1ccc(N2CCN(C(=O)C(c3ccccc3)n3ncc4c3nc(N)n3nc(-c5ccco5)nc43)CC2)cc1` (stereo not drawn) [Compound A62, 2-(5-amino-2-(furan-2-yl)-7H-pyrazolo[4,3-e][1,2,4]triazolo[1,5-c]pyrimidin-7-yl)-1-(4-(4-(2-hydroxypropoxy)phenyl)piperazin-1-yl)-2-phenylethan-1-one], for which the half-maximal inhibitory concentration (IC50) is 1.3 nM.

The compound `COCCOc1ccc(N2CCN(C(=O)C(C)(c3ccccc3)n3ncc4c3nc(N)n3nc(-c5ccco5)nc43)CC2)cc1` (stereo not drawn) [Compound A63, 2-(5-amino-2-(furan-2-yl)-7H-pyrazolo[4,3-e][1,2,4]triazolo[1,5-c]pyrimidin-7-yl)-1-(4-(4-(2-methoxyethoxy)phenyl)piperazin-1-yl)-2-phenylpropan-1-one] had a half-inhibitory concentration (IC50) of 6.2 nM.

`COCCOc1ccc(N2CCN(C(=O)C(C)(c3ccccc3)n3ncc4c3nc(N)n3nc(-c5ccco5)nc43)CC2)c(F)c1` (stereo not drawn) [Compound A64, 2-(5-amino-2-(furan-2-yl)-7H-pyrazolo[4,3-e][1,2,4]triazolo[1,5-c]pyrimidin-7-yl)-1-(4-(2-fluoro-4-(2-methoxyethoxy)phenyl)piperazin-1-yl)-2-phenylpropan-1-one] showed a half-inhibitory concentration (IC50) of 4.8 nM.

Take `COCCOc1ccc(N2CCN(C(=O)[C@](C)(c3ccccc3)n3ncc4c3nc(N)n3nc(-c5ccco5)nc43)CC2)c(F)c1` [Compound A64a, (S)-2-(5-amino-2-(furan-2-yl)-7H-pyrazolo[4,3-e][1,2,4]triazolo[1,5-c]pyrimidin-7-yl)-1-(4-(2-fluoro-4-(2-methoxyethoxy)phenyl)piperazin-1-yl)-2-phenylpropan-1-one]: the midpoint of inhibition, the IC50, lay at 17.5 nM.

With `COCCOc1ccc(N2CCN(C(=O)[C@@](C)(c3ccccc3)n3ncc4c3nc(N)n3nc(-c5ccco5)nc43)CC2)c(F)c1` [Compound A64b, (R)-2-(5-amino-2-(furan-2-yl)-7H-pyrazolo[4,3-e][1,2,4]triazolo[1,5-c]pyrimidin-7-yl)-1-(4-(2-fluoro-4-(2-methoxyethoxy)phenyl)piperazin-1-yl)-2-phenylpropan-1-one], the IC50 amounted to 2.2 nM.

The values are drawn from patent US20210300936A1, “PYRAZOLOTRIAZOLOPYRIMIDINE DERIVATIVES AS A2A RECEPTOR ANTAGONIST” (BEIGENE, LTD., priority 2018, published 2021).
